In ChEMBL document CHEMBL3885881, “DrugMatrix”:

Organism: Rattus norvegicus
Experiment: DrugMatrix - Regimen: Daily Repeat
Type: toxicity, organism-based, Sprague-Dawley
Set-up: regimen Daily Repeat, gender Male, age 6-8 weeks
Conditions: in vivo, po, route oral GAVAGE, […]; for URIC ACID / ALANINE AMINOTRANSFERASE / ALBUMIN / ALKALINE PHOSPHATASE / ASPARTATE AMINOTRANSFERASE / BLOOD UREA NITROGEN / CARBON DIOXIDE / CHLORIDE / CHOLESTEROL / CREATINE PHOSPHOKINASE / CREATININE / GLUCOSE / LACTATE DEHYDROGENASE / LIPASE / PHOSPHORUS / POTASSIUM / SODIUM / TOTAL BILIRUBIN / TOTAL PROTEIN: tissue Plasma
[1] = 72 h, tissue Blood, dose 4.2 mg/Kg, dose level Low, time 3 day
[2] = 72 h, dose 4.2 mg/Kg, dose level Low, time 3 day
[3] = 120 h, tissue Blood, dose 4.2 mg/Kg, dose level Low, time 5 day
[4] = 120 h, dose 4.2 mg/Kg, dose level Low, time 5 day

## O=NN(CCCl)C(=O)NC1CCCCC1 [LOMUSTINE]
0 mg/kg, 120 h, dose level Control, time 5 day
  URIC ACID: 1.52 mg/dL
[1]
  ABSOLUTE BASOPHIL: 0 CELLS/uL
  ABSOLUTE EOSINOPHIL: 32.67 CELLS/uL
  ABSOLUTE LYMPHOCYTE: 10341.33 CELLS/uL
  ABSOLUTE MONOCYTE: 0 CELLS/uL
  BASOPHIL: 0%
  EOSINOPHIL: 0.33%
  ERYTHROCYTE COUNT: 5.55 x10E6/uL
  HEMATOCRIT: 34.1%
  HEMOGLOBIN: 13.57 G/DL
  LEUKOCYTE COUNT: 10.97 x10E3/uL
  LYMPHOCYTE: 94.33%
  MEAN CORPUSCULAR HEMOGLOBIN: 24.43 pg
  MEAN CORPUSCULAR HEMOGLOBIN CONCENTRATION: 39.77 G/DL
  MEAN CORPUSCULAR VOLUME: 61.4 fL
  MONOCYTE: 0%
  NEUTROPHIL: 5.33%
  NUCLEATED RED BLOOD CELLS: 0 /100WBC
  PLATELET COUNT: 1095 x10E3/uL
[2]
  ALANINE AMINOTRANSFERASE: 51.33 u/L
  ALBUMIN: 3.83 G/DL
  ALKALINE PHOSPHATASE: 333.67 u/L
  ASPARTATE AMINOTRANSFERASE: 87.33 u/L
  BLOOD UREA NITROGEN: 11.33 mg/dL
  CARBON DIOXIDE: 25.67 mmol/L
  CHLORIDE: 103 MEQ/L
  CHOLESTEROL: 70 mg/dL
  CREATINE PHOSPHOKINASE: 944.67 u/L
  CREATININE: 0.19 mg/dL
  GLUCOSE: 199 mg/dL
  LACTATE DEHYDROGENASE: 127 u/L
  LIPASE: 10.33 u/L
  PHOSPHORUS: 11.7 mg/dL
  POTASSIUM: 5.37 MEQ/L
  SODIUM: 142.27 MEQ/L
  TOTAL BILIRUBIN: 0.1 mg/dL
  TOTAL PROTEIN: 5.5 G/DL
  URIC ACID: 1.6 mg/dL
[3]
  ABSOLUTE BASOPHIL: 0 CELLS/uL
  ABSOLUTE EOSINOPHIL: 32 CELLS/uL
  ABSOLUTE LYMPHOCYTE: 5295.33 CELLS/uL
  ABSOLUTE MONOCYTE: 16 CELLS/uL
  ABSOLUTE SEGMENTED NEUTROPHIL: 290 CELLS/uL
  BASOPHIL: 0%
  EOSINOPHIL: 0.67%
  ERYTHROCYTE COUNT: 5.43 x10E6/uL
  HEMATOCRIT: 33.87%
  HEMOGLOBIN: 13.53 G/DL
  LEUKOCYTE COUNT: 5.63 x10E3/uL
  LYMPHOCYTE: 94%
  MEAN CORPUSCULAR HEMOGLOBIN: 24.9 pg
  MEAN CORPUSCULAR HEMOGLOBIN CONCENTRATION: 39.97 G/DL
  MEAN CORPUSCULAR VOLUME: 62.43 fL
  MONOCYTE: 0.33%
  NEUTROPHIL: 5%
  NUCLEATED RED BLOOD CELLS: 0 /100WBC
  PLATELET COUNT: 1171.33 x10E3/uL
[4]
  ALANINE AMINOTRANSFERASE: 53.33 u/L
  ALBUMIN: 4.17 G/DL
  ALKALINE PHOSPHATASE: 336 u/L
  ASPARTATE AMINOTRANSFERASE: 97.33 u/L
  BLOOD UREA NITROGEN: 10 mg/dL
  CARBON DIOXIDE: 31.33 mmol/L
  CHLORIDE: 101 MEQ/L
  CHOLESTEROL: 63.33 mg/dL
  CREATINE PHOSPHOKINASE: 631.67 u/L
  CREATININE: 0.13 mg/dL
  GLUCOSE: 157 mg/dL
  LACTATE DEHYDROGENASE: 132 u/L
  LIPASE: 11 u/L
  PHOSPHORUS: 10.57 mg/dL
  POTASSIUM: 5.78 MEQ/L
  SODIUM: 147.05 MEQ/L
  TOTAL BILIRUBIN: 0.13 mg/dL
  TOTAL PROTEIN: 5.93 G/DL
  URIC ACID: 0.77 mg/dL
